Measured values: PubChem BioAssay AID743481 (Broad Institute, 2014)
Active and inactive are the calls of the source.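 Rule for the calls: active = compounds lowering cell ATP signal whose fitted AC50 is at most twice their highest tested dose; inconclusive = flat curve with moderate signal loss, or unreliable fit; inactive = the rest.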

test system: HEK293T viability, ATP luminescence, 72 h; test: HEK293T viability reduction via ATP content – cell-based, CellTiter-Glo luminescence, dry powder, cytotoxicity control, dose response (AID 743481); conditions: not given

SMILES	AC50
COc1ccc(S(=O)(=O)N(C)C[C@@H]2OCCCC[C@H](C)Oc3ccc(NS(=O)(=O)c4ccc(Cl)cc4)cc3C(=O)N([C@@H](C)CO)C[C@@H]2C)cc1	16.4 µM
C[C@H]1CCCCO[C@@H](CN(C)S(=O)(=O)c2ccc(Cl)cc2)[C@@H](C)CN([C@@H](C)CO)C(=O)c2cc(NC(=O)NC3CCCCC3)ccc2O1	15.8 µM
C[C@@H]1CN([C@@H](C)CO)C(=O)c2cc(NC(=O)C3CCCCC3)ccc2O[C@@H](C)CCCCO[C@H]1CN(C)C(=O)Nc1cccc2ccccc12	7.74 µM
C[C@H](CO)N1C[C@H](C)[C@H](CN(C)C(=O)Nc2ccc(C(F)(F)F)cc2)OCCCC[C@H](C)Oc2ccc(NC(=O)CCC(F)(F)F)cc2C1=O	> 52 µM (inactive)

test system: not listed separately; test: as above; conditions: HEK293T viability, ATP luminescence, 72 h; at 26 µM (top of the series)

SMILES	activity change, negative = cytotoxicity
C[C@@H]1CCCCO[C@H](CN(C)C(=O)Nc2cccc3ccccc23)[C@@H](C)CN([C@@H](C)CO)C(=O)c2cc(NC(=O)C3CCCCC3)ccc2O1	6.63% (inactive)
CC(C)(C)c1ccc(-c2nc(-c3ccncc3)no2)cc1	-16.3% (inactive)
C[C@H](CO)N1C[C@H](C)[C@H](CN(C)C(=O)Nc2cccc(F)c2)OCCCC[C@H](C)Oc2ccc(NC(=O)C3CCCCC3)cc2C1=O	9.35% (inactive)
C[C@@H]1CCCCO[C@@H](CN(C)C(=O)Nc2cccc3ccccc23)[C@H](C)CN([C@H](C)CO)C(=O)c2cc(NC(=O)C3CCCCC3)ccc2O1	-11.7% (inactive)
C[C@H](CO)N1C[C@H](C)[C@H](CN(C)C(=O)Nc2ccc(F)cc2)OCCCC[C@H](C)Oc2ccc(NC(=O)C3CC3)cc2C1=O	-1.35% (inactive)
C[C@H](CO)N1C[C@H](C)[C@H](CN(C)C(=O)Nc2ccc(F)cc2)OCCCC[C@H](C)Oc2ccc(NC(=O)Nc3ccc(F)cc3)cc2C1=O	-12.4% (inactive)
C[C@H](CO)N1C[C@H](C)[C@H](CN(C)C(=O)Nc2ccc(Cl)cc2)OCCCC[C@H](C)Oc2ccc(NC(=O)C3CCCCC3)cc2C1=O	-12.5% (inactive)
C[C@H](CO)N1C[C@H](C)[C@H](CN(C)C(=O)Nc2cccc3ccccc23)OCCCC[C@H](C)Oc2ccc(NC(=O)CCC(F)(F)F)cc2C1=O	24.6% (inactive)
C[C@H]1CCCCO[C@@H](CN(C)C(=O)Nc2ccc(F)cc2)[C@@H](C)CN([C@@H](C)CO)C(=O)c2cc(NC(=O)C3CCCCC3)ccc2O1	-15.6% (inactive)
C[C@H]1CCCCO[C@@H](CN(C)C(=O)Nc2ccc3c(c2)OCO3)[C@@H](C)CN([C@@H](C)CO)C(=O)c2cc(NC(=O)NC3CCCCC3)ccc2O1	-7.34% (inactive)
C[C@H](CO)N1C[C@H](C)[C@H](CN(C)C(=O)Nc2cccc3ccccc23)OCCCC[C@H](C)Oc2ccc(NC(=O)C3CCCCC3)cc2C1=O	-4.95% (inactive)
C[C@H](CO)N1C[C@H](C)[C@H](CN(C)C(=O)Nc2ccc(F)cc2)OCCCC[C@H](C)Oc2ccc(NC(=O)C3CCCCC3)cc2C1=O	-7.09% (inactive)
C[C@@H]1CCCCO[C@@H](CN(C)C(=O)Nc2cccc3ccccc23)[C@@H](C)CN([C@@H](C)CO)C(=O)c2cc(NC(=O)C3CCCCC3)ccc2O1	-16.3% (inactive)
C[C@H](CO)N1C[C@H](C)[C@H](CN(C)C(=O)Nc2ccccc2)OCCCC[C@H](C)Oc2ccc(NC(=O)CCC(F)(F)F)cc2C1=O	-6.87% (inactive)
C[C@H](CO)N1C[C@H](C)[C@H](CN(C)C(=O)Nc2ccc(F)cc2)OCCCC[C@H](C)Oc2ccc(NC(=O)C3CCCCCC3)cc2C1=O	-6.61% (inactive)
CC(=O)Nc1ccc2c(c1)C(=O)N([C@H](C)CO)C[C@H](C)[C@H](CN(C)C(=O)Nc1ccc(F)cc1)OCCCC[C@H](C)O2	-16.5% (inactive)
C[C@H](CO)N1C[C@H](C)[C@H](CN(C)C(=O)Nc2ccc(F)cc2)OCCCC[C@H](C)Oc2ccc(NC(=O)C3CCCC3)cc2C1=O	9.39% (inactive)
COc1ccc(NC(=O)N(C)C[C@@H]2OCCCC[C@H](C)Oc3ccc(NC(=O)C4CCCCC4)cc3C(=O)N([C@H](C)CO)C[C@@H]2C)cc1	-7.25% (inactive)
C[C@H](CO)N1C[C@H](C)[C@H](CN(C)C(=O)Nc2ccccc2F)OCCCC[C@H](C)Oc2ccc(NC(=O)C3CCCCC3)cc2C1=O	-11.7% (inactive)
C[C@H]1CCCCO[C@@H](CN(C)C(=O)Nc2ccccc2)[C@@H](C)CN([C@@H](C)CO)C(=O)c2cc(NC(=O)NC3CCCCC3)ccc2O1	3.42% (inactive)
C[C@@H]1CCCCO[C@@H](CN(C)C(=O)Nc2cccc3ccccc23)[C@@H](C)CN([C@H](C)CO)C(=O)c2cc(NC(=O)C3CCCCC3)ccc2O1	-15.4% (inactive)
C[C@H](CO)N1C[C@H](C)[C@H](CN(C)C(=O)Nc2ccc3c(c2)OCO3)OCCCC[C@H](C)Oc2ccc(NC(=O)NC3CCCCC3)cc2C1=O	-11.1% (inactive)

SMILES	activity change, negative = cytotoxicity
Cc1ccc(NC(=O)N(C)C[C@@H]2OCCCC[C@H](C)Oc3ccc(NC(=O)C4CCCCC4)cc3C(=O)N([C@H](C)CO)C[C@@H]2C)cc1	9.91% (inactive)
COc1ccc(NC(=O)N(C)C[C@@H]2OCCCC[C@H](C)Oc3ccc(NC(=O)NC4CCCCC4)cc3C(=O)N([C@H](C)CO)C[C@@H]2C)cc1	-10.6% (inactive)
C[C@@H]1CCCCO[C@H](CN(C)C(=O)Nc2cccc3ccccc23)[C@H](C)CN([C@@H](C)CO)C(=O)c2cc(NC(=O)C3CCCCC3)ccc2O1	-10.3% (inactive)
C[C@H](CO)N1C[C@H](C)[C@H](CN(C)C(=O)Nc2ccccc2)OCCCC[C@H](C)Oc2ccc(NC(=O)C3CCCCC3)cc2C1=O	-9.15% (inactive)
C[C@H](CO)N1C[C@H](C)[C@@H](CN(C)C(=O)Nc2cccc3ccccc23)OCCCC[C@H](C)Oc2ccc(NC(=O)C3CCCCC3)cc2C1=O	-7.19% (inactive)
C[C@H](CO)N1C[C@H](C)[C@H](CN(C)C(=O)Nc2ccc(F)cc2)OCCCC[C@H](C)Oc2ccc(NC(=O)Nc3ccccc3)cc2C1=O	-10.5% (inactive)
C[C@H](CO)N1C[C@H](C)[C@H](CN(C)C(=O)Nc2ccccc2)OCCCC[C@H](C)Oc2ccc(NC(=O)Nc3ccc4c(c3)OCO4)cc2C1=O	-5.94% (inactive)
C[C@H](CO)N1C[C@H](C)[C@H](CN(C)C(=O)Nc2ccc3c(c2)OCO3)OCCCC[C@H](C)Oc2ccc(NC(=O)C3CCCCC3)cc2C1=O	2.78% (inactive)
C[C@H](CO)N1C[C@H](C)[C@H](CN(C)C(=O)Nc2ccccc2)OCCCC[C@H](C)Oc2ccc(NC(=O)NC3CCCCC3)cc2C1=O	-8.51% (inactive)
C[C@@H]1CCCCO[C@@H](CN(C)C(=O)Nc2cccc3ccccc23)[C@H](C)CN([C@@H](C)CO)C(=O)c2cc(NC(=O)C3CCCCC3)ccc2O1	-12.5% (inactive)
C[C@H](CO)N1C[C@H](C)[C@H](CN(C)C(=O)Nc2ccc(C(F)(F)F)cc2)OCCCC[C@H](C)Oc2ccc(NC(=O)NC3CCCCC3)cc2C1=O	5.48% (inactive)
C[C@@H]1CN([C@@H](C)CO)C(=O)c2cc(NC(=O)C3CCCCC3)ccc2O[C@@H](C)CCCCO[C@@H]1CN(C)C(=O)Nc1cccc2ccccc12	-17% (inactive)
C[C@H](CO)N1C[C@H](C)[C@H](CN(C)C(=O)Nc2cccc3ccccc23)OCCCC[C@H](C)Oc2ccc(NC(=O)NC3CCCCC3)cc2C1=O	-18.8% (inactive)
C[C@@H]1CCCCO[C@H](CN(C)C(=O)Nc2cccc3ccccc23)[C@H](C)CN([C@H](C)CO)C(=O)c2cc(NC(=O)C3CCCCC3)ccc2O1	3.66% (inactive)
C[C@H](CO)N1C[C@H](C)[C@H](CN(C)C(=O)Nc2ccc(F)cc2)OCCCC[C@H](C)Oc2ccc(NC(=O)C3CCC3)cc2C1=O	-3.85% (inactive)
C[C@H](CO)N1C[C@H](C)[C@H](CN(C)C(=O)Nc2cccc3ccccc23)OCCCC[C@H](C)Oc2ccc(NC(=O)c3ccccc3)cc2C1=O	-8.78% (inactive)
C[C@H]1CCCCO[C@@H](CN(C)C(=O)Nc2cccc3ccccc23)[C@@H](C)CN([C@@H](C)CO)C(=O)c2cc(NC(=O)C3CCCCC3)ccc2O1	-14.3% (inactive)
C[C@H](CO)N1C[C@H](C)[C@H](CN(C)C(=O)Nc2ccc3ccccc3c2)OCCCC[C@H](C)Oc2ccc(NC(=O)C3CCCCC3)cc2C1=O	7.21% (inactive)
C[C@H](CO)N1C[C@H](C)[C@H](CN(C)C(=O)Nc2ccc(F)cc2)OCCCC[C@H](C)Oc2ccc(NC(=O)NC3CCCCC3)cc2C1=O	-9.87% (inactive)
C[C@H](CO)N1C[C@H](C)[C@H](CN(C)C(=O)Nc2ccccc2)OCCCC[C@H](C)Oc2ccc(NC(=O)Nc3ccccc3)cc2C1=O	0.603% (inactive)
C[C@@H]1CCCCO[C@H](CN(C)C(=O)Nc2cccc3ccccc23)[C@@H](C)CN([C@H](C)CO)C(=O)c2cc(NC(=O)C3CCCCC3)ccc2O1	-3.68% (inactive)
C[C@H](CO)N1C[C@H](C)[C@H](CN(C)C(=O)Nc2ccc(F)cc2)OCCCC[C@H](C)Oc2ccc(NC(=O)C3CCOCC3)cc2C1=O	-1.32% (inactive)
